Measurements reported in ChEMBL document CHEMBL2440027, “Further SAR studies on bicyclic basic merbarone analogues as potent antiproliferative agents” (Bioorg Med Chem, 2013).

How the values were obtained:
[1] = tested on: MT4; assay: Cytotoxicity against human MT4 cells; format: functional, cell-based
[2] = tested on: HeLa; assay: Cytotoxicity against human HeLa cells; format: functional, cell-based
[3] = tested on: MCF7; assay: Cytotoxicity against human MCF7 cells; format: functional, cell-based
[4] = molecular target: DNA topoisomerase 2-alpha (Homo sapiens, UniProt P11388); assay: Inhibition of human topoisomerase 2alpha-mediated relaxation of supercoiled pBR322 after 1 hr by ethidium bromide staining
Chain of DNA topoisomerase 2-alpha (P11388 whole entry): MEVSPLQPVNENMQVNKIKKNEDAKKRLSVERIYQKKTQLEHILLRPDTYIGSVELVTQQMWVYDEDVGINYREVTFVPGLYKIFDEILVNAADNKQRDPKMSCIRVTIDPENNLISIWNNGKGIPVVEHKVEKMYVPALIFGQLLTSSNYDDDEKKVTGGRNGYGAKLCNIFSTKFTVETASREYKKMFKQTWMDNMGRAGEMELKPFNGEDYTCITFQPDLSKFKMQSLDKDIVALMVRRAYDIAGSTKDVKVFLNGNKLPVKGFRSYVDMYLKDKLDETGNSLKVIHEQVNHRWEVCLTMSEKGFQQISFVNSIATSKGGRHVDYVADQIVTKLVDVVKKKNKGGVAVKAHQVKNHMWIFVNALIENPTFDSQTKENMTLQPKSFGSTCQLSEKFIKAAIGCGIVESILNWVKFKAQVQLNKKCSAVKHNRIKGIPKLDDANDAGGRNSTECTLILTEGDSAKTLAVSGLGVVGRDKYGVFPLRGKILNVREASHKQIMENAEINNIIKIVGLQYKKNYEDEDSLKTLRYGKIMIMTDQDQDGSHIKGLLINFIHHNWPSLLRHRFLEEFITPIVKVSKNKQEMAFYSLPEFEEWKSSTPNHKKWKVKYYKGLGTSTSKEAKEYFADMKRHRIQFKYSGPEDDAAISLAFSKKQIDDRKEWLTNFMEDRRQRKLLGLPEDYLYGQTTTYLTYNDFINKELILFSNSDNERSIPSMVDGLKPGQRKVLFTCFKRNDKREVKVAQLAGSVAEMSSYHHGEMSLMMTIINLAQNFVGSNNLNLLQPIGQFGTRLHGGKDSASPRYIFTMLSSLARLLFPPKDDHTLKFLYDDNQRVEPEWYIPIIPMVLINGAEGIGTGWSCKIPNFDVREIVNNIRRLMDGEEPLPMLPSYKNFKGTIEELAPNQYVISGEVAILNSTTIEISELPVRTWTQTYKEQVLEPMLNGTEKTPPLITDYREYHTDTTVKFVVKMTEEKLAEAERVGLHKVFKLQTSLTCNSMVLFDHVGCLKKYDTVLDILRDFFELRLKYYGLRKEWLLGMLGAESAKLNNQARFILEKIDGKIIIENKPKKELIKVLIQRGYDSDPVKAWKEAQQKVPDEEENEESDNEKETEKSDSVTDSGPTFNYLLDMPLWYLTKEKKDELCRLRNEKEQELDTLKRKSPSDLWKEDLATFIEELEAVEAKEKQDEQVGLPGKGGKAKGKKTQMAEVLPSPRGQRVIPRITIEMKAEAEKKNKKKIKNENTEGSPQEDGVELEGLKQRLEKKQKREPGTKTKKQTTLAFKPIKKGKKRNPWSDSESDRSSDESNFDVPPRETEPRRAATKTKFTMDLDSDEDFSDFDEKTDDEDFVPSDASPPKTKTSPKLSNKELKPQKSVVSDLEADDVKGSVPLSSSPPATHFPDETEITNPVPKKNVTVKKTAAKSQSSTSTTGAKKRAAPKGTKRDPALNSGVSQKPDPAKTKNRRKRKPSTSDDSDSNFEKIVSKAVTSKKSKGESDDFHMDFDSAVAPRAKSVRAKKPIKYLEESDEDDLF

| SMILES | IC50 [1] [µM] | IC50 ([2]; Homo sapiens, HeLa) [µM] | IC50 [3] [µM] | IC50 [4] [µM] | IC50 ([2]; hela) [µM] |
| --- | --- | --- | --- | --- | --- |
| CCN(CC)CCSc1nc2c(c(=N)n1-c1ccccc1)c(=S)n(-c1ccccc1)c(=S)n2-c1ccccc1 | 3.3 | – | – | – | – |
| CN1CCN(c2nc3c(c(=N)n2-c2ccccc2)c(=S)n(-c2ccccc2)c(=S)n3-c2ccccc2)CC1 | > 100 | > 50 | > 50 | – | – |
| N=c1c2c(=S)n(-c3ccccc3)c(=S)n(-c3ccccc3)c2nc(NNc2ccccc2)n1-c1ccccc1 | > 100 | – | – | – | – |
| CCN(CC)CCNc1nc2c(c(=N)n1-c1ccccc1)c(=S)n(-c1ccccc1)c(=S)n2-c1ccccc1 | 2.5 | 16.9 | 11.1 | > 100 | – |
| N=c1c2c(=S)n(-c3ccccc3)c(=S)n(-c3ccccc3)c2nc(SCCN2CCCCC2)n1-c1ccccc1 | 3.6 | – | – | – | – |
| N=c1c2c(=S)n(-c3ccccc3)c(=S)n(-c3ccccc3)c2nc(NCCc2ccc(Cl)cc2)n1-c1ccccc1 [listing 1 of 2 here] | – | 5.6 | 25.6 | 2 | – |
| N=c1c2c(=S)n(-c3ccccc3)c(=S)n(-c3ccccc3)c2nc(NCc2cccnc2)n1-c1ccccc1 [listing 1 of 2 here] | – | 14.6 | 24.3 | 3 | – |
| CN1CCN(CCCNc2nc3c(c(=N)n2-c2ccccc2)c(=S)n(-c2ccccc2)c(=S)n3-c2ccccc2)CC1 [listing 1 of 2 here] | – | 8.5 | 5.7 | > 35 | – |
| N=c1c2c(=S)n(-c3ccccc3)c(=S)n(-c3ccccc3)c2nc(NCCN2CCCCC2)n1-c1ccccc1 [listing 1 of 2 here] | – | 5.2 | 26.7 | 3 | – |
| CCCCN(CCCC)CCCNc1nc2c(c(=N)n1-c1ccccc1)c(=S)n(-c1ccccc1)c(=S)n2-c1ccccc1 | – | 2 | < 1 | > 32 | – |
| CN(C)CCCNc1nc2c(c(=N)n1-c1ccccc1)c(=S)n(-c1ccccc1)c(=S)n2-c1ccccc1 | 1.7 | 7.8 | 5.5 | > 100 | – |
| N=c1c2c(=S)n(-c3ccccc3)c(=S)n(-c3ccccc3)c2nc(NCCN2CCCCC2)n1-c1ccccc1 [listing 2 of 2 here] | 1.7 | – | – | – | – |
| CN1CCN(CCCNc2nc3c(c(=N)n2-c2ccccc2)c(=S)n(-c2ccccc2)c(=S)n3-c2ccccc2)CC1 [listing 2 of 2 here] | 2 | – | – | – | – |
| N=c1c2c(=S)n(-c3ccccc3)c(=S)n(-c3ccccc3)c2nc(NCc2ccccn2)n1-c1ccccc1 | 7 | > 50 | > 50 | > 100 | – |
| N=c1c2c(=S)n(-c3ccccc3)c(=S)n(-c3ccccc3)c2nc(NCc2cccnc2)n1-c1ccccc1 [listing 2 of 2 here] | > 100 | – | – | 3 | 12.6 |
| N=c1c2c(=S)n(-c3ccccc3)c(=S)n(-c3ccccc3)c2nc(NCCc2ccc(Cl)cc2)n1-c1ccccc1 [listing 2 of 2 here] | 2.4 | – | – | 2 | 5.9 |
| N=c1c2c(=S)n(-c3ccccc3)c(=S)n(-c3ccccc3)c2nc(NCCc2ccccn2)n1-c1ccccc1 | 8 | 10.5 | 17.3 | > 100 | – |
| N=c1c2c(=S)n(-c3ccccc3)c(=S)n(-c3ccccc3)c2nc(NCCc2ccncc2)n1-c1ccccc1 | 16 | 15.4 | 17.8 | > 100 | – |
| N=c1c2c(=S)n(-c3ccccc3)c(=S)n(-c3ccccc3)c2nc(NCCCn2ccnc2)n1-c1ccccc1 | 8 | > 100 | > 100 | – | – |
| O=C1NC(=S)NC(=O)C1C(=O)Nc1ccccc1 [MERBARONE] | 12 | 43.8 | 61.6 | 32 | – |
